Test [1] deals with human recombinant GST cleaved CSNK1D (Homo sapiens (Human), UniProt P48730). Put plainly: Purified enzyme assay (ADP-Glo Kinase Assay). Type of test: biochemical. The note with it: 2 nM CSNK1D, peptide substrate 150 μM, ATP 20 μM, 45 minutes room temperature. How it is done:
In this assay, CSNK1D phosphorylates a substrate peptide PLSRTL-pS-VASLPGL in the presence of ATP. […] This assay monitors CSNK1D kinase activity by measuring the amount of ADP produced in the assay. A substrate mix is prepared by diluting peptide substrate (final concentration 150 μM) with ATP (final concentration 20 μM) in assay buffer (50 mM Tris/HCl pH 7.4+10 mM MgCl2+1 mM DTT+0.1% BSA). The substrate mix is added to each well of a low volume, 384-well, white opaque plate. Test compounds were diluted in HBSS and added in a dose-response to the plate. To start the reaction, 2 nM of constitutively active human recombinant GST cleaved CSNK1D (University of Dundee, clone DU 19064, stored at 0.28 mg/mL in 50 mM Tris/HCl pH 7.5, 150 mM NaCl, 270 mM Sucrose, 0.1 mM EGTA, 0.1% 2-mercaptoethanol, 0.02% Brij-35.1 mM benzamidine, 0.2 mM PMSF) was added to each well and the plate centrifuged for 5 minutes at 1500 rpm. The total volume of each reaction is 5 ul (2 μL of substrate mix, 1 μL of diluted compounds, and 2 μL of human recombinant CSNK1D). The plates are incubated for 45 minutes at room temperature.
ADP was quantified using the ADP-Glo™ Kinase Assay. ADP-Glo Reagent (5 μL) was added to each well. After a 1 hour incubation at room temperature, Kinase Detection Reagent (10 μL) was added to each well and incubated for 30 minutes. Luminescence was measured on the Perkin Elmer Wallac EnVision 2104 Multi-label Reader. The raw data from the Envision is used to calculate percent activity.

For test [2], the target named is human CSNK1D tagged with nanoluciferase (Homo sapiens (Human), UniProt P48730). Put plainly: Whole Cell nBRET CSNK1D Binding Assay. The following applies: living CHO cells stably expressing human CSNK1D-nanoluciferase; NanoBret tracer 130 nM; 2 hours 37° C.; read-out: CSNK1D BRET IC50. The method, then: This cellular binding assay uses a bioluminescence resonance energy transfer to measure human CSNK1D binding activity in living Chinese Hamster Ovary (CHO) cells that are stably expressing human CSNK1D tagged with nanoluciferase. The cells were grown to confluency in growth media (DMEM:F12, 50 u/mLPen/Strep, […] glutamine, and 0.6 mg/mL G418) in 10 cm^2 dishes. Cells were seeded onto white, opaque 384-well plates (Corning, cat #3704) at a density of 8,000 cells/well in serum-free OptiMEM and left to incubated overnight at 37° C., […]. The next day, test compounds were added in a dose response to the plate followed by a NanoBret tracer (130 nM). The plate is mixed on an orbital shaker for 30 seconds, then placed in a 37° C. incubator for 2 hours. NanoBret Nano-Glo Substrate solution (20 μL) is added to all wells and incubated for 3 minutes at room temperature. Donor (450 nm) and acceptor (630 nm) emissions are then measured within 10 minutes using a ClarioStar plate reader. The data is used to calculate millibret units, defined as (E630/E450)*1000. Bret emissions are then graphed against the log of compound concentrations and these graphs are used to determine the IC50 of each compound.

Each structure is given as a SMILES string.

Chain of human recombinant GST cleaved CSNK1D (P48730 whole entry): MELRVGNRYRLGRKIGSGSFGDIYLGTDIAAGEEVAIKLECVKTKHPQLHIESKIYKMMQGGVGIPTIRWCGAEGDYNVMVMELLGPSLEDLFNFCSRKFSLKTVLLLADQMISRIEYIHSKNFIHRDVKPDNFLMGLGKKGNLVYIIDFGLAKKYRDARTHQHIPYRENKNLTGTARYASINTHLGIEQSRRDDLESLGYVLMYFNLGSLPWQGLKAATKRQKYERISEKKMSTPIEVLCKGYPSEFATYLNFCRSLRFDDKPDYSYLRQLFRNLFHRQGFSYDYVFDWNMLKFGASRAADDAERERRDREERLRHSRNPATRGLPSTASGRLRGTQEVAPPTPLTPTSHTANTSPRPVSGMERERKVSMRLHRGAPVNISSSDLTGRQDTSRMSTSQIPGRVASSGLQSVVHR
Chain of human CSNK1D tagged with nanoluciferase (P48730 whole entry): as above

With `CCn1cc(-c2ccnc3[nH]ccc23)c(-c2ccc(F)cn2)n1` [Example 55, 4-[1-Ethyl-3-(5-fluoro-2-pyridyl)pyrazol-4-yl]-1H-pyrrolo[2,3-b]pyridine], the AC50 in test [1] came out at 7 nM. Moreover, the half-maximal inhibitory concentration (IC50) in test [2] came out at 93 nM.
Turning to `CCn1cc(-c2ccnc3[nH]ncc23)c(-c2ccc(F)cn2)n1` [Example 56, 4-(1-Ethyl-3-(5-fluoropyridin-2-yl)-1H-pyrazol-4-yl)-1H-pyrazolo[3,4-b]pyridine], in test [1], the AC50 amounted to 5 nM. Moreover, the 50% inhibitory concentration (IC50) in test [2] was determined as 205 nM.
Turning to `CCn1cc(-c2cc(C)nc3[nH]ncc23)c(-c2ccc(F)cn2)n1` [Example 57, 4-(1-Ethyl-3-(5-fluoropyridin-2-yl)-1H-pyrazol-4-yl)-6-methyl-1H-pyrazolo[3,4-b]pyridine], the concentration at half-maximal activity (AC50) in test [1] stood at 14 nM. Besides, the half-inhibitory concentration (IC50) in test [2] came out at 219 nM.
With `CC(C)n1cc(-c2ccnc3[nH]ccc23)c(-c2ccc(F)cn2)n1` [Example 58, 4-[3-(5-Fluoro-2-pyridyl)-1-isopropyl-pyrazol-4-yl]-1H-pyrrolo[2,3-b]pyridine], in test [1], the concentration at half-maximal activity (AC50) came to 17 nM. Besides, the half-inhibitory concentration (IC50) in test [2] is 97 nM.
For `CC(C)n1cc(-c2ccnc3[nH]ncc23)c(-c2ccc(F)cn2)n1` [Example 59, 4-(3-(5-Fluoropyridin-2-yl)-1-isopropyl-1H-pyrazol-4-yl)-1H-pyrazolo[3,4-b]pyridine], the concentration at half-maximal activity (AC50) in test [1] stood at 44 nM. Moreover, the IC50 in test [2] was 326 nM.
For the compound `Cc1cc(-c2cn(C(C)C)nc2-c2ccc(F)cn2)c2cn[nH]c2n1` [Example 60, 4-(3-(5-Fluoropyridin-2-yl)-1-isopropyl-1H-pyrazol-4-yl)-6-methyl-1H-pyrazolo[3,4-b]pyridine], the half-maximal activity concentration (AC50) in test [1] amounted to 11 nM. Besides, the IC50 in test [2] is 372 nM.
In the same order, the values of `CC(C)Cn1cc(-c2ccnc3[nH]ccc23)c(-c2ccc(F)cn2)n1` [Example 61, 4-[3-(5-Fluoro-2-pyridyl)-1-isobutyl-pyrazol-4-yl]-1H-pyrrolo[2,3-b]pyridine] are 14 nM and 115 nM.
The like results for `CC(C)Cn1cc(-c2ccnc3[nH]ncc23)c(-c2ccc(F)cn2)n1` [Example 62, 4-(3-(5-Fluoropyridin-2-yl)-1-isobutyl-1H-pyrazol-4-yl)-1H-pyrazolo[3,4-b]pyridine] were, in that order, 8 nM and 477 nM.
As for `Cc1cc(-c2cn(CC(C)C)nc2-c2ccc(F)cn2)c2cn[nH]c2n1` [Example 63, 4-(3-(5-Fluoropyridin-2-yl)-1-isobutyl-1H-pyrazol-4-yl)-6-methyl-1H-pyrazolo[3,4-b]pyridine], in test [1], the half-maximal activity concentration (AC50) was 6 nM. For the same compound, the IC50 in test [2] was found to be 253 nM.
The like results for `COCCn1cc(-c2cc(C)nc3[nH]ncc23)c(-c2ccc(F)cn2)n1` [Example 64, 4-(3-(5-Fluoropyridin-2-yl)-1-(2-methoxyethyl)-1H-pyrazol-4-yl)-6-methyl-1H-pyrazolo[3,4-b]pyridine] were, in that order, 19 nM and 393 nM.
In the same order, the values of `Fc1ccc(-c2nn(C(F)F)cc2-c2ccnc3[nH]ccc23)nc1` [Example 65, 4-[1-(Difluoromethyl)-3-(5-fluoro-2-pyridyl)pyrazol-4-yl]-1H-pyrrolo[2,3-b]pyridine] are 21 nM and 171 nM.
For `Fc1ccc(-c2nn(C(F)F)cc2-c2ccnc3[nH]ncc23)nc1` [Example 66, 4-(1-(Difluoromethyl)-3-(5-fluoropyridin-2-yl)-1H-pyrazol-4-yl)-1H-pyrazolo[3,4-b]pyridine], the concentration at half-maximal activity (AC50) in test [1] came to 526 nM. In test [2], the IC50 came out at 1070 nM.
In the case of `Cc1cc(-c2cn(C(F)F)nc2-c2ccc(F)cn2)c2cn[nH]c2n1` [Example 67, 4-(1-(Difluoromethyl)-3-(5-fluoropyridin-2-yl)-1H-pyrazol-4-yl)-6-methyl-1H-pyrazolo[3,4-b]pyridine], the half-maximal activity concentration (AC50) in test [1] was determined as 18 nM. In addition, the IC50 in test [2] was 1310 nM.
With `FCCn1cc(-c2ccnc3[nH]ccc23)c(-c2ccc(F)cn2)n1` [Example 68, 4-[1-(2-Fluoroethyl)-3-(5-fluoro-2-pyridyl)pyrazol-4-yl]-1H-pyrrolo[2,3-b]pyridine], the AC50 in test [1] was 4 nM. Further, the IC50 in test [2] came to 80 nM.
The like results for `Cc1cc(-c2cn(CC(F)F)nc2-c2ccc(F)cn2)c2cn[nH]c2n1` [Example 69, 4-(1-(2,2-Difluoroethyl)-3-(5-fluoropyridin-2-yl)-1H-pyrazol-4-yl)-6-methyl-1H-pyrazolo[3,4-b]pyridine] were, in that order, 6 nM and 311 nM.
The like results for `Cc1cc(-c2cn(CC(F)(F)F)nc2-c2ccc(F)cn2)c2cn[nH]c2n1` [Example 70, 4-(3-(5-Fluoropyridin-2-yl)-1-(2,2,2-trifluoroethyl)-1H-pyrazol-4-yl)-6-methyl-1H-pyrazolo[3,4-b]pyridine] were, in that order, 12 nM and 236 nM.
As to `Cc1cc(-c2cn(C3CCC3)nc2-c2ccc(F)cn2)c2cn[nH]c2n1` [Example 71, 4-(1-Cyclobutyl-3-(5-fluoropyridin-2-yl)-1H-pyrazol-4-yl)-6-methyl-1H-pyrazolo[3,4-b]pyridine], in test [1], the AC50 was 3 nM. For the same compound, the IC50 in test [2] stood at 113 nM.
The like results for `Fc1ccc(-c2nn(C3COC3)cc2-c2ccnc3[nH]ccc23)nc1` [Example 72, 4-[3-(5-Fluoro-2-pyridyl)-1-(oxetan-3-yl)pyrazol-4-yl]-1H-pyrrolo[2,3-b]pyridine] were, in that order, 8 nM and 136 nM.
As for `Cc1cc(-c2cn(C3COC3)nc2-c2ccc(F)cn2)c2cn[nH]c2n1` [Example 73, 4-(3-(5-Fluoropyridin-2-yl)-1-(oxetan-3-yl)-1H-pyrazol-4-yl)-6-methyl-1H-pyrazolo[3,4-b]pyridine], in test [1], the concentration at half-maximal activity (AC50) came to 20 nM. For the same compound, the half-maximal inhibitory concentration (IC50) in test [2] is 576 nM.
The like results for `Cn1cc(-c2ccnc3[nH]cc(Br)c23)c(-c2ccc(F)cn2)n1` [Example 75, 3-Bromo-4-[3-(5-fluoro-2-pyridyl)-1-methyl-pyrazol-4-yl]-1H-pyrrolo[2,3-b]pyridine] were, in that order, 1 nM and 24 nM.
The like results for `Cn1cc(-c2ccnc3[nH]cc(Cl)c23)c(-c2ccc(F)cn2)n1` [Example 76, 3-Chloro-4-[3-(5-fluoro-2-pyridyl)-1-methyl-pyrazol-4-yl]-1H-pyrrolo[2,3-b]pyridine] were, in that order, 1 nM and 17 nM.
In the same order, the values of `Cn1cc(-c2ccnc3[nH]cc(F)c23)c(-c2ccc(F)cn2)n1` [Example 77, 3-Fluoro-4-[3-(5-fluoro-2-pyridyl)-1-methyl-pyrazol-4-yl]-1H-pyrrolo[2,3-b]pyridine] are 7 nM and 53 nM.
Consider `Cn1cc(-c2c(F)cnc3[nH]ccc23)c(-c2ccc(F)cn2)n1` [Example 78, 5-Fluoro-4-[3-(5-fluoro-2-pyridyl)-1-methyl-pyrazol-4-yl]-1H-pyrrolo[2,3-b]pyridine], for which, in test [1], the AC50 was 4 nM. Further, the IC50 in test [2] came to 50 nM.
The like results for `Cc1cnc2[nH]ccc2c1-c1cn(C)nc1-c1ccc(F)cn1` [Example 79, 4-[3-(5-Fluoro-2-pyridyl)-1-methyl-pyrazol-4-yl]-5-methyl-1H-pyrrolo[2,3-b]pyridine] were, in that order, 7 nM and 52 nM.
The like results for `Cc1cc(-c2cn(C)nc2-c2ccc(F)cn2)c2cc[nH]c2n1` [Example 80, 4-[3-(5-Fluoro-2-pyridyl)-1-methyl-pyrazol-4-yl]-6-methyl-1H-pyrrolo[2,3-b]pyridine] were, in that order, 1 nM and 41 nM.
Regarding `Cc1cc2c(-c3cn(C)nc3-c3ccc(F)cn3)ccnc2[nH]1` [Example 81, 4-(3-(5-Fluoropyridin-2-yl)-1-methyl-1H-pyrazol-4-yl)-2-methyl-1H-pyrrolo[2,3-b]pyridine], in test [1], the AC50 is 84 nM. The 50% inhibitory concentration (IC50) in test [2] came out at 1460 nM.
The like results for `Cc1c[nH]c2nccc(-c3cn(C)nc3-c3ccc(F)cn3)c12` [Example 82, 4-[3-(5-Fluoro-2-pyridyl)-1-methyl-pyrazol-4-yl]-3-methyl-1H-pyrrolo[2,3-b]pyridine] were, in that order, 6 nM and 59 nM.

Values taken from patent publication US20230339900A1, “CASEIN KINASE 1 DELTA MODULATORS” (Janssen Pharmaceutica NV, priority 2020, published 2023).
